Reference: the NIST ThermoML archive (doi:10.1021/je0301747)
± gives the expanded uncertainty stated by the source.

What was measured:
[1] = Liquid
[2] = molar enthalpy of vaporization or sublimation; settings: 298.15 K; Liquid

Structure (SMILES)	vapor or sublimation pressure ([1]; 298.15 K) [kPa]	vapor or sublimation pressure ([1]; 328.15 K) [kPa]	vapor or sublimation pressure ([1]; 358.15 K) [kPa]	vapor or sublimation pressure ([1]; 388.15 K) [kPa]	vapor or sublimation pressure ([1]; 418.15 K) [kPa]	vapor or sublimation pressure ([1]; 448.15 K) [kPa]	vapor or sublimation pressure ([1]; 478.15 K) [kPa]	vapor or sublimation pressure ([1]; 508.15 K) [kPa]	vapor or sublimation pressure ([1]; 538.15 K) [kPa]	vapor or sublimation pressure ([1]; 568.15 K) [kPa]	vapor or sublimation pressure ([1]; 575.15 K) [kPa]	molar enthalpy [2] [kcal/mol]
CCCCCCCCCCCCCCCCCCCCCC [docosane]	2.148e-07 ± 4e-07	1.218e-05 ± 5.5e-06	0.0002988 ± 8.8e-05	0.003922 ± 0.00095	0.032 ± 0.007	0.1809 ± 0.038	0.7674 ± 0.16	2.593 ± 0.53	7.298 ± 1.5	17.71 ± 3.6	21.39 ± 4.3	26.7 ± 1.89
CCCCCCCCCCCCCCCCCCCCC [heneicosane]	6.69e-07	3.15e-05 ± 2.3e-05	0.0006673 ± 0.00029	0.007785 ± 0.0025	0.05774 ± 0.015	0.3019 ± 0.071	1.201 ± 0.27	3.849 ± 0.83	10.36 ± 2.2	24.22 ± 5	29.02 ± 6	25.5 ± 1.74
CCCCCCCCCCCCCCCCCCCCCCCCCCC [heptacosane]	1.127e-09	1.502e-07 ± 1.2e-07	7.253e-06 ± 2.8e-06	0.0001636 ± 3.8e-05	0.002067 ± 0.00034	0.01669 ± 0.0023	0.09492 ± 0.012	0.4089 ± 0.046	1.409 ± 0.15	4.056 ± 0.43	5.076 ± 0.53	32.4 ± 2.29
CCCCCCCCCCCCCCCCCCCCCCCCCC [hexacosane]	2.809e-09	3.247e-07 ± 2.4e-07	1.401e-05 ± 5.6e-06	0.0002888 ± 8.1e-05	0.003393 ± 0.0008	0.02583 ± 0.0056	0.14 ± 0.029	0.5797 ± 0.12	1.934 ± 0.4	5.417 ± 1.1	6.742 ± 1.4	31.5 ± 2.22
CCCCCCCCCCCCCCCCCCCCCCCCCCCCC [nonacosane]	1.018e-10	2.044e-08 ± 2.3e-08	1.365e-06 ± 6.8e-07	3.99e-05 ± 1.1e-05	0.0006219 ± 0.00012	0.005963 ± 0.00088	0.0391 ± 0.005	0.1897 ± 0.022	0.7225 ± 0.08	2.264 ± 0.24	2.884 ± 0.3	35.2 ± 3.59
CCCCCCCCCCCCCCCCCCCCCCCCCCCC [octacosane]	3.173e-10	5.263e-08 ± 5.1e-08	3.022e-06 ± 1.4e-06	7.829e-05 ± 2.4e-05	0.001107 ± 0.00027	0.009795 ± 0.0022	0.06012 ± 0.013	0.276 ± 0.057	1.004 ± 0.21	3.025 ± 0.62	3.823 ± 0.77	33.9 ± 3.35
CCCCCCCCCCCCCCCCCCCCCCCCC [pentacosane]	8.145e-09	7.894e-07 ± 5.2e-07	2.963e-05 ± 1.1e-05	0.0005462 ± 0.00015	0.005863 ± 0.0014	0.04146 ± 0.009	0.2114 ± 0.044	0.8322 ± 0.17	2.661 ± 0.54	7.192 ± 1.5	8.882 ± 1.8	30.3 ± 2.03
CCCCCCCCCCCCCCCCCCCCCCCC [tetracosane]	2.373e-08	1.931e-06 ± 1.1e-06	6.308e-05 ± 2.1e-05	0.001041 ± 0.00027	0.01022 ± 0.0023	0.06716 ± 0.014	0.3225 ± 0.067	1.208 ± 0.25	3.705 ± 0.75	9.668 ± 2	11.85 ± 2.4	29.1 ± 1.96
CCCCCCCCCCCCCCCCCCCCCCCCCCCCCC [triacontane]	3.317e-11	8.03e-09 ± 1e-08	6.217e-07 ± 3.6e-07	2.045e-05 ± 7.1e-06	0.0003508 ± 9.2e-05	0.003636 ± 0.00084	0.02543 ± 0.0055	0.1301 ± 0.027	0.5185 ± 0.11	1.687 ± 0.34	2.167 ± 0.44	36.4 ± 3.82
CCCCCCCCCCCCCCCCCCCCCCC [tricosane]	7.059e-08	4.801e-06 ± 2.5e-06	0.0001361 ± 4.3e-05	0.002006 ± 0.0005	0.01797 ± 0.004	0.1096 ± 0.023	0.4952 ± 0.1	1.763 ± 0.36	5.183 ± 1.1	13.05 ± 2.6	15.88 ± 3.2	28 ± 1.96
